Values of other authors, collected in patent publication US11807855B2, “Selection vectors and methods of selecting eukaryotic host cells” (Novartis AG, priority 2013, dated 2023).

Key:
[1] = molecular target: wild type folate receptor alpha (Homo sapiens, UniProt P15328)
[2] = molecular target: A49L mutated folate receptor alpha (Homo sapiens, UniProt P15328, A74L); conditions: A49L mutant
[3] = molecular target: FR alpha and FR beta
[4] = molecular target: T1, RFC (Homo sapiens, UniProt P41440)
T1 sequence (P41440 1-591): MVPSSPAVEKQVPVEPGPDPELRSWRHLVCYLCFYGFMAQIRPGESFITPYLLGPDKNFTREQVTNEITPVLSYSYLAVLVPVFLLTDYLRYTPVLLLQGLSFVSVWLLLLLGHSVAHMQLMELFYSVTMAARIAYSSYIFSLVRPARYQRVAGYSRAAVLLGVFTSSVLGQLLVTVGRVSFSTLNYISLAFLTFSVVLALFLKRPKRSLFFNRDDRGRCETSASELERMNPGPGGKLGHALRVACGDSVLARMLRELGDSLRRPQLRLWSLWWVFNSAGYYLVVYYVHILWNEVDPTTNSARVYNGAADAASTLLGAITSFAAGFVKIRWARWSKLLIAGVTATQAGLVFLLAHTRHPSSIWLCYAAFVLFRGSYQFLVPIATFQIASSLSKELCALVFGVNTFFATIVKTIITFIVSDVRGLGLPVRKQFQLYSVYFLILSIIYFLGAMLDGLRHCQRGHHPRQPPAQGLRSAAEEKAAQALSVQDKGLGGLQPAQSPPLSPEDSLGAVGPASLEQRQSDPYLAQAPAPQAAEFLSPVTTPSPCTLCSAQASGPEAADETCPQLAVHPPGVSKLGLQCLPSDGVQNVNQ

wild type folate receptor alpha, sequence (P15328 25-234): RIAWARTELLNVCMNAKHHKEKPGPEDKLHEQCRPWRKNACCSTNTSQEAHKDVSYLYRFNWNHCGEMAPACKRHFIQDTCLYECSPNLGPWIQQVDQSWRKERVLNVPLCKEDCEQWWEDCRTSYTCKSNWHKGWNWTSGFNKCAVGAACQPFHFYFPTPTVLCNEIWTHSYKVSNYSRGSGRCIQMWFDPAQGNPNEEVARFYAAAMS
A49L mutated folate receptor alpha, sequence (P15328 25-234 A74L): as the sequence (P15328 25-234) above, with A50L counted along it

CN1c2c(nc(N)[nH]c2=O)NCC1CNc1ccc(C(=O)N[C@@H](CCC(=O)O)C(=O)O)cc1 (single isomer, unassigned) [6S diastereoisomer of 5-methyltetrahydrofolate, 5-methyltetrahydrofolate]
IC50 [1]: 2.9 nM
IC50 [2]: 179 nM

Nc1nc2c(c(=O)[nH]1)CC(CCc1ccc(C(=O)N[C@@H](CCC(=O)O)C(=O)O)cc1)CN2 (stereo partly shown) [5,10-dideazatetrahydrofolic acid]
Ki ([3]; using [3H]folic acid as a substrate): 0.4 to 1.3 nM

C#CCN(c1ccc(C(=O)N[C@@H](CCC(=O)N[C@H](CCC(=O)O)C(=O)O)C(=O)O)cc1)[C@H]1CCc2cc3nc(CO)[nH]c(=O)c3cc21 [BGC945]
Kd [3]: 1 nM

CN(Cc1cnc2nc(N)nc(N)c2n1)c1ccc(C(=O)N[C@@H](CCC(=O)O)C(=O)O)cc1 [MTX, methotrexate]
Kd [3]: > 100 nM

Nc1nc2ncc(CNc3ccc(C(=O)N[C@@H](CCC(=O)O)C(=O)O)cc3)nc2c(=O)[nH]1 [folic acid]
Kd [3]: 0.1 to 1 nM
Km [4]: 200 to 400 µM
